In US20050090399A1, “Phenyl substituted heterocyclic compounds useful as herbicides” (priority 2002, published 2005):

Tests used:
Phalaris (Pha) = assay: Pre-emergence herbicidal action, greenhouse pot test: Phalaris; assay type: in vivo; conditions: 125 g/ha
Protocol: (§1) Monocotyledonous and dicotyledonous weeds and summer wheat (Lona) are sown in standard soil in plastics pots. Directly after sowing, the test compounds are applied as EC 125 and WP 10 (without additional surface-active compounds). The rate of application is 125 g of active substance per ha. The test plants are then grown on in the greenhouse under optimum conditions. Evaluation is carried out 20 days after application: 100 denotes 100% damage to the plant in question.
(§2) Test plants: Agrostis (Agr), Alopecurus (Alo), Phalaris (Pha), Lolium (Lol) and Setaria (Set).

Alopecurus (Alo) = assay: Pre-emergence herbicidal action, greenhouse pot test: Alopecurus; assay type: in vivo; conditions: 125 g/ha
Protocol: as §1, §2

Setaria (Set) = assay: Pre-emergence herbicidal action, greenhouse pot test: Setaria; assay type: in vivo; conditions: 125 g/ha
Protocol: as §1, §2

summer wheat (Lona) = assay: Pre-emergence herbicidal action, greenhouse pot test: damage to summer wheat; assay type: in vivo; conditions: 125 g/ha
Protocol: as §1, §2

Lolium (Lol) = assay: Pre-emergence herbicidal action, greenhouse pot test: Lolium; assay type: in vivo; conditions: 125 g/ha
Protocol: as §1, §2

Agrostis (Agr) = assay: Pre-emergence herbicidal action, greenhouse pot test: Agrostis; assay type: in vivo; conditions: 125 g/ha
Protocol: as §1, §2

[1] = applied directly after sowing as WP 10, evaluation 20 days after application
[2] = applied directly after sowing as EC 125, evaluation 20 days after application

melting point | SMILES | Herbicidal action (damage to the plant), Pha (Phalaris (Pha); [1]) | Herbicidal action (damage to the plant), Alo (Alopecurus (Alo); [1]) | Herbicidal action (damage to the plant), Set (Setaria (Set); [1]) | Herbicidal action (damage to the plant), wheat (summer wheat (Lona); [1]) | Herbicidal action (damage to the plant), Lol (Lolium (Lol); [1]) | Herbicidal action (damage to the plant), Agr (Agrostis (Agr); [1]) | further results
106 to 107 °C | CCCCCCCCCCCC(=O)Oc1c(-c2c(CC)cc(C)cc2CC)c(=O)n2n1CCOCC2 [1.01] |  |  |  |  |  |  | 
 | CCCCCCCC/C=C\CCCCCCCC(=O)Oc1c(-c2c(CC)cc(C)cc2CC)c(=O)n2n1CCOCC2 [compound 1.03] | 100% | 90% | 100% | 10% | 90% | 98% | 
 | CCCCCCCC/C=C\CCCCCCCCC(C)C(=O)Oc1c(-c2c(CC)cc(C)cc2CC)c(=O)n2n1CCOCC2 (centres unmarked) [compound 1.12b] | 100% | 90% | 90% | 10% | 80% | 95% | 
 | CCCCCCCC/C=C\CCCCCCCCC(C)(C)C(=O)Oc1c(-c2c(CC)cc(C)cc2CC)c(=O)n2n1CCOCC2 [compound 1.05b] | 100% | 80% | 70% | 0% | 70% | 80% | 
 | CCc1cc(C)cc(CC)c1C1C(=O)N2CCOCCN2C1=O [compound A, 8-(2,6-diethyl-4-methyl-phenyl)-tetrahydropyrazolo[1,2-d][1,4,5]oxadiazepine-7,9-dione, reference compound] |  |  |  |  |  |  | Herbicidal action (damage to the plant), Pha (Phalaris (Pha); [2]): 100%; Herbicidal action (damage to the plant), Alo (Alopecurus (Alo); [2]): 100%; Herbicidal action (damage to the plant), Set (Setaria (Set); [2]): 100%; Herbicidal action (damage to the plant), wheat (summer wheat (Lona); [2]): 20%; Herbicidal action (damage to the plant), Lol (Lolium (Lol); [2]): 98%; Herbicidal action (damage to the plant), Agr (Agrostis (Agr); [2]): 95%
91 to 92 °C | CCCCCCCCCCCCCCCC(=O)Oc1c(-c2c(CC)cc(C)cc2CC)c(=O)n2n1CCOCC2 [1.02] |  |  |  |  |  |  | 
